The procedure of the data set:
The stability of dexmedetomidine hydrochloride to acidic, basic, oxidative and photolytic stress was examined. […] Each sample was injected in duplicate.

Each structure is given as a SMILES string. Where a name gives a salt, the structure may show the parent alone. Read-outs that look alike come from different tables or passages of the source.

On to `Cc1cccc([C@H](C)c2cnc[nH]2)c1C` [dexmedetomidine hydrochloride], for which the “degradation compared to the control sample” value (8 h, 13.3 μg/mL) amounted to 12.7%. The same compound came in with an Assay (Acid Sample: 5N Hydrochloric Acid, 60° C., 8 hours) of 95.2%; an Assay (Base Sample: 2N Sodium Hydroxide, 60° C., 4 hours) of 93.8%; an Assay (Control Sample, not subjected to any stress) of 98.4%; an Assay (Heat Sample: 60° C., 8 hours) of 98.4%; an Assay (Light Sample: photochemical reaction unit, 24 hours) of 92.0%; an Assay (Oxidation Sample: 0.3% Hydrogen Peroxide, 60° C., 8 hours) of 85.7%.

The record behind these values is patent US10016396B2, “Dexmedetomidine premix formulation” (Hospira, Inc., priority 2012, dated 2018).
